Measured values taken from ChEMBL document CHEMBL1201862, “PubChem BioAssay data set” (2004).
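Step 1: Grow cells in 96-well plates. Step 2: Expose to compound for 48 hours at 5 concentrations. Step 3: Interpolate endpoints linearly; if unreached, use highest concentration. At the GI50, growth is halved.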 Active and inactive are the calls of the source. Rule as the data show it: active = GI50 up to about 1.1 µM and inactive = higher.

Experiments:
Experiment in all cases: growth of human tumour cells (NCI), 48 h
SK-MEL-28 = test system: SK-MEL-28
HCT-116 = test system: HCT-116
SN12C = test system: SN12C
Hs-578T = test system: Hs-578T
SR = test system: SR
SK-MEL-5 = test system: SK-MEL-5
RPMI-8226 = test system: RPMI-8226
SNB-19 = test system: SNB-19
T47D = test system: T47D
UACC-62 = test system: UACC-62
CCRF-CEM = test system: CCRF-CEM
786-0 = test system: 786-0
SK-OV-3 = test system: SK-OV-3
TK-10 = test system: TK-10
CAKI-1 = test system: CAKI-1
UO-31 = test system: UO-31
RXF 393 = test system: RXF 393
SF-268 = test system: SF-268
NCI-H23 = test system: NCI-H23
MOLT-4 = test system: MOLT-4

SMILES	GI50 (SK-MEL-28)	GI50 (HCT-116)	GI50 (SN12C)	GI50 (Hs-578T)	GI50 (SR)	GI50 (SK-MEL-5)	GI50 (RPMI-8226)	GI50 (SNB-19)	GI50 (T47D)	GI50 (UACC-62)	GI50 (CCRF-CEM)	GI50 (786-0)	GI50 (SK-OV-3)	GI50 (TK-10)	GI50 (CAKI-1)	GI50 (UO-31)	GI50 (RXF 393)	GI50 (SF-268)	GI50 (NCI-H23)	GI50 (MOLT-4)
O=C(O)CN1CCN2CCCCCN(CC1)CCN(CC(=O)O)CC2	> 100 µM (inactive)	73.8 µM (inactive)	> 100 µM (inactive)	31.8 µM (inactive)	45.1 µM (inactive)	> 100 µM (inactive)	> 100 µM (inactive)	> 100 µM (inactive)	> 100 µM (inactive)	> 100 µM (inactive)	> 100 µM (inactive)	> 100 µM (inactive)	> 100 µM (inactive)	> 100 µM (inactive)	> 100 µM (inactive)	> 100 µM (inactive)	–	–	–	–
Cc1ccc(/N=N/N(C)C(C)C(O)Cc2ccccc2)cc1 (stereo not given)	65.8 µM (inactive)	49.3 µM (inactive)	27.9 µM (inactive)	41.9 µM (inactive)	–	39.6 µM (inactive)	12.4 µM (inactive)	82.2 µM (inactive)	33.7 µM (inactive)	52.1 µM (inactive)	32.7 µM (inactive)	59.4 µM (inactive)	> 100 µM (inactive)	29 µM (inactive)	93.8 µM (inactive)	18 µM (inactive)	40.6 µM (inactive)	46 µM (inactive)	50.9 µM (inactive)	33.7 µM (inactive)
CN(C)CCNC(=O)c1cccc(CO)c1[N+](=O)[O-]	> 100 µM (inactive)	> 100 µM (inactive)	> 100 µM (inactive)	> 100 µM (inactive)	> 100 µM (inactive)	> 100 µM (inactive)	–	> 100 µM (inactive)	> 100 µM (inactive)	> 100 µM (inactive)	> 100 µM (inactive)	> 100 µM (inactive)	> 100 µM (inactive)	> 100 µM (inactive)	> 100 µM (inactive)	> 100 µM (inactive)	–	> 100 µM (inactive)	> 100 µM (inactive)	> 100 µM (inactive)
Cc1ccc(Nc2nc(=O)c3c4ccccc4n(C(=O)OC(C)(C)C)c3s2)cc1	44.9 µM (inactive)	–	–	33.2 µM (inactive)	12.8 µM (inactive)	13.2 µM (inactive)	17.8 µM (inactive)	79.1 µM (inactive)	39.2 µM (inactive)	18.5 µM (inactive)	30.3 µM (inactive)	15.3 µM (inactive)	> 100 µM (inactive)	37.8 µM (inactive)	18.2 µM (inactive)	5.9 µM (inactive)	–	20.6 µM (inactive)	23.1 µM (inactive)	53 µM (inactive)
C[C@H](CCC1=NCCN1)[C@H]1CC[C@H]2[C@@H]3CC[C@@H]4C[C@H](O)CC[C@]4(C)[C@H]3C[C@H](O)[C@]12C	18.6 µM (inactive)	20.5 µM (inactive)	16.9 µM (inactive)	11.4 µM (inactive)	–	11.8 µM (inactive)	11.3 µM (inactive)	8.71 µM (inactive)	13.6 µM (inactive)	13.5 µM (inactive)	10.7 µM (inactive)	16.3 µM (inactive)	18 µM (inactive)	14 µM (inactive)	20.4 µM (inactive)	18.6 µM (inactive)	18 µM (inactive)	7.36 µM (inactive)	14.1 µM (inactive)	3.13 µM (inactive)
CC(C)=CCC/C(C)=C/CC/C(C)=C/CC/C(C=O)=C/CC/C(C)=C\CC/C(C)=C/CC/C(C)=C/CC/C(C)=C/CC1=CC(=O)C=CC1=O	> 100 µM (inactive)	73.5 µM (inactive)	> 100 µM (inactive)	62.4 µM (inactive)	> 100 µM (inactive)	56 µM (inactive)	37.4 µM (inactive)	> 100 µM (inactive)	10.5 µM (inactive)	21.1 µM (inactive)	72.8 µM (inactive)	67 µM (inactive)	> 100 µM (inactive)	> 100 µM (inactive)	33 µM (inactive)	> 100 µM (inactive)	–	> 100 µM (inactive)	22.9 µM (inactive)	55.5 µM (inactive)
CC(=O)Nc1[nH]c(C#N)nc1C#N	> 100 µM (inactive)	> 100 µM (inactive)	> 100 µM (inactive)	> 100 µM (inactive)	–	> 100 µM (inactive)	> 100 µM (inactive)	> 100 µM (inactive)	> 100 µM (inactive)	> 100 µM (inactive)	> 100 µM (inactive)	> 100 µM (inactive)	> 100 µM (inactive)	> 100 µM (inactive)	> 100 µM (inactive)	> 100 µM (inactive)	> 100 µM (inactive)	> 100 µM (inactive)	> 100 µM (inactive)	> 100 µM (inactive)
CC1(C)CC(=O)C(CC2C(=O)c3ccccc3C2=O)C(=O)C1C(=O)C(=O)Nc1cccc2ccc(O)cc12 (stereo not given)	> 100 µM (inactive)	> 100 µM (inactive)	> 100 µM (inactive)	74.6 µM (inactive)	–	> 100 µM (inactive)	66.5 µM (inactive)	> 100 µM (inactive)	27.4 µM (inactive)	> 100 µM (inactive)	< 0.01 µM (active)	> 100 µM (inactive)	> 100 µM (inactive)	54 µM (inactive)	34.4 µM (inactive)	33.8 µM (inactive)	–	> 100 µM (inactive)	67.1 µM (inactive)	53.5 µM (inactive)
O=C1c2ccccc2-c2c1c(-c1ccc(O)cc1O)nc1ccc3ccccc3c21	> 100 µM (inactive)	> 100 µM (inactive)	> 100 µM (inactive)	21.1 µM (inactive)	–	–	> 100 µM (inactive)	> 100 µM (inactive)	> 100 µM (inactive)	> 100 µM (inactive)	> 100 µM (inactive)	> 100 µM (inactive)	> 100 µM (inactive)	–	> 100 µM (inactive)	> 100 µM (inactive)	–	> 100 µM (inactive)	> 100 µM (inactive)	> 100 µM (inactive)
CC(=O)N[C@H]1CCCC[C@@H]1OC(C)=O	> 100 µM (inactive)	> 100 µM (inactive)	> 100 µM (inactive)	> 100 µM (inactive)	–	> 100 µM (inactive)	> 100 µM (inactive)	–	> 100 µM (inactive)	> 100 µM (inactive)	–	> 100 µM (inactive)	> 100 µM (inactive)	> 100 µM (inactive)	> 100 µM (inactive)	–	> 100 µM (inactive)	–	> 100 µM (inactive)	> 100 µM (inactive)
C=C1CC(Cn2ccc(=O)[nH]c2=O)(c2ccc(-c3ccccc3)cc2)OC1=O (stereo not given)	2.45 µM (inactive)	0.377 µM (active)	4.6 µM (inactive)	3.7 µM (inactive)	0.995 µM (active)	1.16 µM (inactive)	0.234 µM (active)	16.9 µM (inactive)	1.57 µM (inactive)	0.764 µM (active)	0.305 µM (active)	0.619 µM (active)	8.09 µM (inactive)	1.03 µM (active)	1.16 µM (inactive)	6.64 µM (inactive)	–	16.1 µM (inactive)	1.98 µM (inactive)	1.5 µM (inactive)
